Source: patent US20240239854A1, “ANTIMICROBIAL PEPTIDES AND MODIFICATIONS THEREOF” (Donald Danforth Plant Science Center, priority 2022, published 2024)
In brackets after ≈: the same amount, converted by molar mass. Read-outs that look alike come from different tables or passages of the source. Positions of bridges follow the written chain, without caps; N, C: chain ends. Non-standard residues stand in square brackets, D forms with d. Residues, ends and D or L forms follow the SMILES beside them. Dab = NCC[C@H](N)C(=O)O

How the values were obtained:
[1] = test system: Botrytis cinerea T-4; conditions: for MIC (μM) SFM: Table 18, SFM; for MIC (μM) (SFM + 2 mM CaCl2): Table 18, SFM + 2 mM CaCl2; for MIC (μM) (SFM + 100 mM KCl): Table 18, SFM + 100 mM KCl; for MIC (μM) (SFM + 100 mM NaCl): Table 18, SFM + 100 mM NaCl
[2] = test system: B. cinerea; conditions: SFM + 2 mM CaCl2
[3] = test system: Zymoseptoria tritici IPO323; type: cell-based
[4] = test system: Fusarium graminearum PH-1; type: cell-based; conditions: MIC Day 1; 96-well plate, resazurin cell viability
[5] = test system: Botrytis cinerea T4; type: cell-based

CC[C@H](C)[C@@H]1NC(=O)[C@H](CCCNC(=N)N)NC(=O)[C@@H](NC(=O)[C@H](CCCNC(=N)N)NC(=O)CNC(=O)[C@@H](N)CO)CSSC[C@@H](C(N)=O)NC(=O)[C@H](CC(N)=O)NC(=O)[C@H](CCCCN)NC(=O)[C@H]([C@@H](C)O)NC(=O)[C@H](Cc2ccccc2)NC(=O)[C@H](Cc2ccc(O)cc2)NC(=O)[C@H](Cc2c[nH]c3ccccc23)NC(=O)[C@H](CCCNC(=N)N)NC(=O)[C@H](Cc2ccccc2)NC(=O)[C@H](CC(C)C)NC1=O [GMA1C_V3] (H-SGRCRILFRWYFTKNC-NH2; disulfide 4-16; N-terminus assumed)
MIC (μM) SFM [1]: 1.5 µM (≈ 3.07 µg/mL) | MIC (μM) (SFM + 2 mM CaCl2) [1]: 6 µM | MIC (μM) (SFM + 100 mM KCl) [1]: >12 µM | MIC (μM) (SFM + 100 mM NaCl) [1]: 3 µM

NCC[C@H](NC(=O)CNC(=O)[C@@H](N)Cc1ccccc1)C(=O)N[C@@H](CS)C(=O)N[C@@H](CCN)C(=O)NCC(=O)N[C@@H](Cc1ccccc1)C(=O)N[C@@H](CCN)C(=O)N[C@@H](CCN)C(=O)N[C@@H](CCN)C(=O)N[C@@H](CS)C(=O)N[C@@H](Cc1ccccc1)C(=O)N[C@@H](CS)C(=O)N[C@@H](Cc1c[nH]c2ccccc12)C(=O)N[C@@H](CCN)C(=O)N[C@@H](Cc1c[nH]c2ccccc12)C(=O)N[C@@H](CS)C(=O)O [GMA4C_V5, FG(Dab)C(Dab)GF(Dab)(Dab)(Dab)CFCW(Dab)WC] (H-FG[Dab]C[Dab]GF[Dab][Dab][Dab]CFCW[Dab]WC-OH; N-terminus assumed)
SFM + 2 mM CaCl2 MIC ([2]; Table 4, B. cinerea): >6 (very μM | SFM + 2 mM CaCl2 MIC ([2]; Table 10, values repeat Table 4 (B. cinerea)): >6 (very μM

CC(C)C[C@@H]1NC(=O)[C@@H](NC(=O)[C@H](C)NC(=O)CN)CSSC[C@@H](C(=O)N[C@@H](Cc2ccc(O)cc2)C(N)=O)NC(=O)[C@H](Cc2c[nH]cn2)NC(=O)[C@H](CCCNC(=N)N)NC(=O)[C@H](Cc2ccc(O)cc2)NC(=O)[C@H](Cc2ccc(O)cc2)NC(=O)[C@H](Cc2c[nH]c3ccccc23)NC(=O)[C@H](Cc2ccccc2)NC(=O)[C@H](Cc2ccccc2)NC(=O)CNC(=O)[C@H](Cc2ccc(O)cc2)NC(=O)[C@H](Cc2c[nH]cn2)NC(=O)[C@H](CCCCN)NC(=O)[C@H](CO)NC(=O)[C@H](Cc2c[nH]cn2)NC(=O)[C@H](CCCNC(=N)N)NC(=O)[C@H](CC(N)=O)NC(=O)[C@H](CCCCN)NC1=O [GMAOe1C_V4] (H-GACLKNRHSKHYGFFWYYRHCY-NH2; disulfide 3-21; N-terminus assumed)
MIC (μM) SFM [1]: 1.5 µM (≈ 4.25 µg/mL) | MIC (μM) (SFM + 2 mM CaCl2) [1]: 6 to 12 µM | MIC (μM) (SFM + 100 mM KCl) [1]: 6 to 12 µM | MIC (μM) (SFM + 100 mM NaCl) [1]: 6 µM

B1: PD127.1.1: wild-type defensin-like protein SEQ ID NO: 732 with N-terminal alanine, expressed in Pichia pastoris (protein, listed as Potentilla micrantha)
chain: GACPLVQKRSKTWSGFCGSSNNCDKQCRTWEKAKHGACHATGDLKGTPRLKLRSCHARRSKDH
modifications: N-terminal alanine added
Z. tritici IPO323 MIC Day 1 [3]: >12 µM | Z. tritici IPO323 MIC Day 7 [3]: >12 µM | Z. tritici IPO323 MIC Day 14 [3]: >12 µM | F. graminearum PH-1 MIC Day1 [4]: >12 µM | B. cinerea T4 MIC Day1 [5]: >12 µM

B2: PD91.1.1: Setaria viridis wild-type defensin SEQ ID NO: 578 with N-terminal alanine, expressed in Pichia pastoris (protein, listed as Setaria viridis)
chain: AYMCTTQNRFFHGRCVNNLNCASSCVHGRLGTGGHCATRKRSAADPGVDIDWVWNRRICVCVFQC
modifications: N-terminal alanine
Z. tritici IPO323 MIC Day 1 [3]: 6 µM | Z. tritici IPO323 MIC Day 7 [3]: >6 µM | Z. tritici IPO323 MIC Day 14 [3]: >6 µM | F. graminearum PH-1 MIC Day1 [4]: >12 µM | B. cinerea T4 MIC Day1 [5]: >12 µM
